Like-named read-outs stand apart in the source and are kept apart here.
Key:
Human Cot = Human Cot (Homo sapiens (Human), UniProt P41279); assay: High Throughput Cot Biochemical Assay; details: Cot HTRF (TR-FRET) biochemical assay
TNFα = assay: Cot Monocyte TNFα Cell Based Assay
[1] = Homo sapiens, Monocyte, read-out: EC50 TNF, LPS-stimulated human monocytes, TNFα

Human Cot, sequence (P41279 30-397): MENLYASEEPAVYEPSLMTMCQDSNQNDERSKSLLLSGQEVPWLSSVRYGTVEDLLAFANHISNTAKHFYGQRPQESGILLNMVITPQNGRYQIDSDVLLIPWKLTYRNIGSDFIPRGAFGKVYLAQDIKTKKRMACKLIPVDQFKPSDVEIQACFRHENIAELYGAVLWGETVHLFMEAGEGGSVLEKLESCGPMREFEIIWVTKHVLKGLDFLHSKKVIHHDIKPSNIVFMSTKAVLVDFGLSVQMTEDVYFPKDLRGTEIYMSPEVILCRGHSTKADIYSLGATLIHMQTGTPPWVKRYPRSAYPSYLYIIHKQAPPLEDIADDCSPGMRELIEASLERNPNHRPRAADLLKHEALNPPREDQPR

IC50 (Human Cot; IC50 HTRF) [nM]	EC50 (TNFα; [1]) [nM]	IC50 (Human Cot; read-out: IC50 HTRF) [nM]	EC50 (TNFα; read-out: EC50 TNF, LPS-stimulated human monocytes, TNFα) [nM]	SMILES
		8	321	CC(C)(C)CNc1c(C#N)cnc2c(Cl)cc(N[C@H](c3cn(C4(C(F)F)CC4)nn3)c3cccc4[nH]ncc34)cc12 [Example 500, (S)-8-chloro-6-(((1-(1-(difluoromethyl- )cyclopropyl)-1H-1,2,3-triazol-4-yl)(1H-indazol-4-yl)methyl)amino)-4-(neopentylamino)quinoline-3-carbonitrile]
6	206			Cc1nc(F)ccc1[C@H](Nc1cc(Cl)c2ncc(C#N)c(NCC3(C)CCC3)c2c1)c1cn(C2(C(F)F)CC2)nn1 [Example 502, (S)-8-chloro-6-(((1-(1-(difluoromethyl)-cyclopropyl)-1H-1,2,3-triazol-4-yl)(6-fluoro-2-methylpyridin-3-yl)methyl)-amino)-4-(((1-methylcyclobutyl)methyl)-amino) quinoline-3-carbonitrile]
8	528			CC(C)(C)CNc1c(C#N)cnc2c(Cl)cc(N[C@@H](c3cccnc3)c3cn(C4(C(F)F)CC4)nn3)cc12 [Example 506, (S)-8-chloro-6-(((1-(1-(difluoromethyl)-cyclopropyl)-1H-1,2,3-triazol-4-yl)(pyridin-3-yl)methyl)amino)-4-(neopentylamino)quinoline-3-carbonitrile]
4	96			CC(C)(C)CNc1c(C#N)cnc2c(Cl)cc(N[C@H](c3cn(C4(C(F)F)CC4)nn3)c3cccc4ncccc34)cc12 [Example 508, (S)-8-chloro-6-(((1-(1-(difluoromethyl)-cyclopropyl)-1H-1,2,3-triazol-4-yl)(quinolin-5-yl)methyl)amino)-4-(neopentylamino)-quinoline-3-carbonitrile]
6	133			Cc1nc(F)ccc1[C@H](Nc1cc(Cl)c2ncc(C#N)c(NC3CCOC3(C)C)c2c1)c1cn(C2(C(F)F)CC2)nn1 (stereo partly drawn) [Example 511, 8-chloro-6-(((S)-(1-(1-(difluoromethyl)-cyclopropyl)-1H-1,2,3-triazol-4-yl)(6-fluoro-2-methylpyridin-3-yl)methyl)amino)-4-((2,2-dimethyltetrahydrofuran-3-yl)amino)-quinoline-3-carbonitrile]
9	154			Cc1nc(F)ccc1[C@H](Nc1cc(F)c2ncc(C#N)c(NCC(C)(C)C)c2c1)c1cn(C2(C(F)(F)F)CC2)nn1 [Example 513, (S)-8-fluoro-6-(((6-fluoro-2-methylpyridin-3-yl)(1-(1-(trifluoromethyl)cyclopropyl)-1H-1,2,3-triazol-4-yl)methyl)amino)-4-(neopentylamino)quinoline-3-carbonitrile]
199	1000			Cc1nc(F)ccc1[C@H](Nc1cc(Cl)c2ncc(C#N)c(N[C@@H]3CCOC3(C)C)c2c1)c1cn(C2(C(F)F)CC2)nn1 [Example 515, 8-chloro-6-(((S)-(1-(1-(difluoromethyl)-cyclopropyl)-1H-1,2,3-triazol-4-yl)(6-fluoro-2-methylpyridin-3-yl)methyl)amino)-4-(((R)-2,2-dimethyltetrahydro-furan-3-yl)amino)quinoline-3-carbonitrile]
3	1000			Cc1nc(F)ccc1[C@H](Nc1cc(Cl)c2ncc(C#N)c(NCC(C)(C)C)c2c1)c1cn(C2(C(=O)O)CC2)nn1 [Example 517, (S)-1-(4-(((8-chloro-3-cyano-4-(neopentylamino)quinolin-6-yl)amino)(6-fluoro-2-methylpyridin-3-yl)methyl)-1H-1,2,3-triazol-1-yl)cyclopropane-1-carboxylic acid]

The next lines start with the molecule.

SMILES	IC50 (Human Cot; IC50 HTRF) [nM]	EC50 (TNFα; [1]) [nM]	IC50 (Human Cot; read-out: IC50 HTRF) [nM]	EC50 (TNFα; read-out: EC50 TNF, LPS-stimulated human monocytes, TNFα) [nM]
CN1Cc2cccc([C@H](Nc3cc(Cl)c4ncc(C#N)c(NCC(C)(C)C)c4c3)c3cn(C4(C(F)F)CC4)nn3)c2C1=O [Example 498, (S)-8-chloro-6-(((1-(1-(difluoromethyl)-cyclopropyl)-1H-1,2,3-triazol-4-yl)(2-methyl-3-oxoisoindolin-4-yl)methyl)-amino)-4-(neopentylamino)quinoline-3-carbonitrile]	19	689		
[2H]C([2H])(Nc1c(C#N)cnc2c(Cl)cc(N[C@H](c3cn(C4(C(F)F)CC4)nn3)c3ccc(F)nc3C)cc12)C(C)(C)C [Example 501, (S)-8-chloro-6-(((1-(1-(difluoromethyl)-cyclopropyl)-1H-1,2,3-triazol-4-yl)(6-fluoro-2-methylpyridin-3-yl)methyl)amino)-4-((2,2-dimethylpropyl-1,1-d2)amino)-quinoline-3-carbonitrile]	3	55		
Cc1nc(F)ccc1[C@H](Nc1cc(C#N)c2ncc(C#N)c(NCC(C)(C)C)c2c1)c1cn(C2(CF)CC2)nn1 [Example 503, (S)-6-(((6-fluoro-2-methylpyridin-3-yl)(1-(1-(fluoromethyl)cyclopropyl)-1H-1,2,3-triazol-4-yl)methyl)amino)-4-(neopentylamino)quinoline-3,8-dicarbonitrile]	2	45		
CC(C)(C)CNc1c(C#N)cnc2c(Cl)cc(N[C@H](c3cn(C4CC4)nn3)c3cccc4ccncc34)cc12 [Example 504, (S)-8-chloro-6-(((1-cyclopropyl-1H-1,2,3-triazol-4-yl)(isoquinolin-8-yl)methyl)amino)-4-(neopentylamino)quinoline-3-carbonitrile]	1	38		
Cc1nc(F)ccc1[C@@H](Nc1cc(Cl)c2ncc(C#N)c(NCC(C)(C)C)c2c1)c1cn(C2(C(F)F)CC2)nn1 [Example 509, (R)-8-chloro-6-(((1-(1-(difluoromethyl)-cyclopropyl)-1H-1,2,3-triazol-4-yl)(6-fluoro-2-methylpyridin-3-yl)methyl)amino)-4-(neopentylamino)quinoline-3-carbonitrile]	267	1000		
Cc1nc(F)ccc1[C@H](Nc1cc(Cl)c2ncc(C#N)c(NCC(C)(C)CC#N)c2c1)c1cn(C2(C(F)F)CC2)nn1 [Example 512, (S)-8-chloro-4-((3-cyano-2,2-dimethyl-propyl)amino)-6-(((1-(1-(difluoromethyl)-cyclopropyl)-1H-1,2,3-triazol-4-yl)(6-fluoro-2-methylpyridin-3-yl)methyl)amino)quinoline-3-carbonitrile]	10	418		
Cc1nc(F)ccc1[C@H](Nc1cc(Cl)c2ncc(C#N)c(N[C@H]3CCOC3(C)C)c2c1)c1cn(C2(C(F)F)CC2)nn1 [Example 516, 8-chloro-6-(((S)-(1-(1-(difluoromethyl)-cyclopropyl)-1H-1,2,3-triazol-4-yl)(6-fluoro-2-methylpyridin-3-yl)methyl)amino)-4-(((S)-2,2-dimethyltetrahydrofuran-3-yl)amino)quinoline-3-carbonitrile]	2	34		
[2H][C@](Nc1cc(Cl)c2ncc(C#N)c(NCC(C)(C)C)c2c1)(c1ccc(F)nc1)c1cn(C2(C(F)F)CC2)nn1 [Example 518, (S)-8-chloro-6-(((1-(1-(difluoromethyl)-cyclopropyl)-1H-1,2,3-triazol-4-yl)(6-fluoropyridin-3-yl)methyl-d)amino)-4-(neopentylamino)quinoline-3-carbonitrile]	7	207		

— patent US11066414B2, “Cot modulators and methods of use thereof” (Gilead Sciences, Inc., priority 2015, dated 2021)
